Settings: Liquid, Ebulliometric method (Recirculating still)

CON=C(C)C [propan-2-one O-methyl oxime]
Settings	vapor or sublimation pressure [kPa]
307.8 K	21.3
312.4 K	26.3
316.6 K	32.3
319.6 K	36.3
322.9 K	42.3
327.6 K	51.3
330 K	56.3
332.2 K	61.3
334.2 K	66.3
336.1 K	71.3
337.7 K	76.3
339.6 K	81.3
341 K	86.3
342.6 K	91.3
344.1 K	96.3

From the NIST ThermoML archive (doi:10.1016/j.fluid.2012.12.028)
